The target in test [1] is T1, ADAM10 (Homo sapiens, UniProt O14672).
T1 construct: purchased R&D Systems 936-AD
T1 sequence (O14672 214-748): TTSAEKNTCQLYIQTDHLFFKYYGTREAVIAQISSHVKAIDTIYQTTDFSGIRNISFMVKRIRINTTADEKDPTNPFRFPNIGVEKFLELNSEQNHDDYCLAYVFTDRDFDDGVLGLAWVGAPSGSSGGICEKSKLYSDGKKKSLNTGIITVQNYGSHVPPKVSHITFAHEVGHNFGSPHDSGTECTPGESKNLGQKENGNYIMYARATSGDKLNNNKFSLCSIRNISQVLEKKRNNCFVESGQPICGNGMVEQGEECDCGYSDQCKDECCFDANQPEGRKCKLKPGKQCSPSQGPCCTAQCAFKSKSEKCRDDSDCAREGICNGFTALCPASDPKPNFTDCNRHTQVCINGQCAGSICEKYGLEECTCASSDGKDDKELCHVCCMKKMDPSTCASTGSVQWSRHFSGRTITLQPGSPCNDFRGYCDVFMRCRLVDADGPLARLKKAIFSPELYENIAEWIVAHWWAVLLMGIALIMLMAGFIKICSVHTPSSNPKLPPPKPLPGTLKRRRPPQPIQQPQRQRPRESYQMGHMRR
Kind of test: ADAM10 glycosylated substrate uHTS/HTS assay. The class given is biochemical. On the procedure:
To enable uHTS both ADAM10 and ADAM17 glycosylated substrate[13] (Fig. 1A) assays were miniaturized to 1536 well plate format. The workflow of the assays in 384 well plate format was recaptured in 1536 well plate format and assay volume was scaled down to 5 µL.
Both assays followed the same general protocol. […] Reactions were incubated at RT for 2 h, after which the fluorescence was measured using Perkin Elmer Viewlux multimode microplate imager (λexcitation = 360 nm, λemission = 460 nm). Final concentration of test compounds in assays was 7.0 µM.
(§1) The miniaturized 1536-well plate format ADAM10 and ADAM17 assays were used to screen a collection of ≈370,000 compounds (MLSMR library, provided by the NIH) on the automated Kalypsys/GNF platform at the Scripps Research Institute Molecular Screening Center (SRIMSC, Jupiter, FL. More details at http://hts.florida.scripps.edu/). […] Both uHTS campaigns were run separately but in a similar manner. Briefly, the first step was the primary screen of all MLSMR’s test compounds as singlicate against the ADAM10 or ADAM17 target at a final concentration of 7.0 μM. Next, compounds selected as primary hits were cherry-picked and retested in triplicate against the primary screen target and its anti-target (ADAM17 for the ADAM10 screening effort, and vice-versa) at the same final concentration of 7.0 μM. […] All data generated during this effort were uploaded to the SRIMSC’s institutional screening database (Assay Explorer, Symyx). Sample to background (S/B) ratios, as well as Z and Z′ values were calculated on a per-plate basis as described before. Curve fitting and resulting IC50 determinations were performed as previously reported.

In test [2] the target is T2, ADAM17 (Homo sapiens, UniProt P78536).
T2 construct: purchased R&D Systems 930-ADB
Kind of test: ADAM17 glycosylated substrate uHTS/HTS assay. The class given is biochemical. The settings on record: for IC50: original uHTS dose response, 10-point 1:3 dilutions starting at 70 µM. On the procedure: Both assays followed the same general protocol. […] After 30 min incubation at RT, the reactions were started by addition of 2.5 µL of 2x solutions of glycosylated substrate (20 µM). Reactions were incubated at RT for 2 h, after which the fluorescence was measured using Perkin Elmer Viewlux multimode microplate imager (λexcitation = 360 nm, λemission = 460 nm). Final concentration of test compounds in assays was 7.0 µM.
as §1

For test [3], the target named is T1, ADAM10. As to the kind of experiment: Dual inhibition studies of ADAM10 with AHA and CID 3117694. It is filed as biochemical. On the procedure:
5 µL of 4X ADAM10 solution ([…]) were added to solid bottom black 384 low volume plates (Nunc, cat# 264705). […] 5 µL of 4X CID 3117694 were added to the wells containing AHA such that the final assay concentrations of CID 3117694 were 0.275, 0.55, 1.1, 2.2, and 4.4 µM. Enzyme-inhibitor mixtures were incubated for 1 h at RT after which 5 µL of 4X glycosylated substrate was added to all wells. Reactions were incubated at RT for 2 h, after which the fluorescence was measured using the Synergy H4 multimode microplate reader (λexcitation = 360 nm, λemission = 460 nm). IC50 values were calculated by fitting normalized data to sigmoidal log vs. response equation utilizing non-linear regression analysis from GraphPad Prizm 6.
Multi-drug combination dose-effect analysis using Compusyn software (ComboSyn, Inc. 599 Mill Run, Paramus, NJ, 07653, USA) was utilized to determine whether inhibitor combinations produced synergy, antagonism, or no effect as compared to a single inhibitor. Combination Index values were obtained using Combination Index (CI) Equation of Chou-Talalay[56] in Compusyn software (ComboSyn, Inc. 599 Mill Run, Paramus, NJ, 07653, USA) and a normalized isobologram was constructed: (D)1/(Dx)1+(D)2/(Dx)2=CI
In the denominators, (Dx)1 is the doses of Drug1 alone that inhibits x% while (Dx)2 is the dose of Drug2 alone that inhibits x%. […] Effect was determined according to the Table 1 (from ref. [57]).

The target in test [4] is T1, ADAM10. The note with it: cited from earlier work.
Test [5] concerns the target T2, ADAM17. The note with it: cited from earlier work.
The subject of test [6] is IL-8-induced migration of primary human neutrophils. As to the kind of experiment: Neutrophil migration assay. The class given is cell-based. On the procedure: (§2) For PBMC or primary human neutrophil chemotaxis assays, transwells with 8 or 5 µm pores were filled with 100 µL of cell suspension (1 × 10^6 cells in 100 µL DMEM + 0.2% BSA). Lower wells were filled with stimulus solution (3 nM CCL2 or 10 µg/mL CXCL8 (IL8) in assay buffer (RPMI + 0.2% BSA). After incubation of PBMCs for 2 h or neutrophils for 45 min, migrated cells were quantified in the lower well. For inhibitor studies, cells were pre-incubated in migration medium for 30 min and subsequently subjected to the migration experiment. Migrated neutrophils or PBMCs were quantified by measurement of endogenous glucuronidase activity as described.

Test [7] concerns CCL2-induced migration of peripheral blood mononuclear cells (PBMC). As to the kind of experiment: PBMC migration assay. The class given is cell-based. On the procedure:
as §2

The subject of test [8] is shedding of CXCL16 in A549 cells. Kind of test: CXCL16 shedding inhibition (ELISA). The class given is cell-based, human. The settings on record: TNF/IFN stimulation 24 h. On the procedure: (§3) A549 cells were seeded in 12-well plates and grown to confluency in DMEM supplemented with 10% FBS and 1% P/S. Subsequently, cells were starved serum-free for 4 h, incubated for 1 h with GI 254023X or CID 3117694 (concentrations as indicated) or DMSO (vehicle, 0.1%) and afterwards stimulated with 10 ng/mL TNF and 10 ng/mL IFN for 24 h or left untreated in the presence of inhibitors or DMSO. Supernatants (500 µL) were harvested and centrifuged for 10 min at 16100 g and 4 °C. […] of CXCL16 were measured using the DuoSet human CXCL16 Elisa Kit (R&D systems, Wiesbaden, Germany). Samples were stored at −80 °C and diluted 2-fold after careful thawing. The standard ranged from 0 to 25,000 pg/mL with a detection limit of 391 pg/mL. For detection of soluble syndecan-4, conditioned media (200 µL) were 2-fold diluted in blotting buffer (0.15 M NaCl buffered to pH 4.5 with 50 mM sodium acetate, and with 0.1% Triton X-100), and applied to cationic polyvinylidene difluoride-based membranes (Hybond-N, Amersham Biosciences, Freiburg, Germany) under vacuum in a dot blot apparatus (Amersham Biosciences). The membranes were blocked for 1 h with PBS-T supplemented with 1% bovine serum albumin and 3% milk powder. Human syndecan-4 was detected by incubating membranes overnight at 4 °C with mouse anti-syndecan-4 mAb (0.6 µg/mL) followed by incubation with POD-coupled goat anti-mouse Ab (27 ng/mL in PBS, Jackson Immunoresearch). Chemiluminescence was recorded and quantified using the luminescent image analyzer LAS3000 substrate after addition of ECL advanced substrate (Amersham Biosciences).

For test [9], the system named is syndecan-4 shedding in A549 cells. As to the kind of experiment: Syndecan-4 shedding inhibition (dot blot). It is filed as cell-based, human. The note with it: TNF/IFN 24 h. On the procedure: as §3, with “For detection of soluble syndecan-4, conditioned media (200 µL) were 2-fold diluted in blotting buffer (0.15 M NaCl buffered to pH 4.5 with 50 mM sodium acetate, and with 0.1% Triton X-100), and applied to cationic polyvinylidene difluoride-based membranes (Hybond-N, Amersham Biosciences, Freiburg, Germany) under vacuum in a dot blot apparatus (Amersham Biosciences). The membranes were blocked for 1 h with PBS-T supplemented with 1% bovine serum albumin and 3% milk powder.” left out

Test [10] has as its target T1, ADAM10. As to the kind of experiment: ADAM10 non-glycosylated substrate assay. It is filed as biochemical. The settings on record: ADAM10. An excerpt:
Additionally, we synthesized a non-glycosylated version, E(Edans)-[…]-K(Dabcyl), to be used as a control in the follow-up studies.

The mark [11] stands for this setting: original uHTS dose response, 10-point 1:3 dilutions starting at 70 µM.

Read-outs that look alike come from different tables or passages of the source. Bounds are passed on as bounds.

The IC50 is the concentration that gives 50% inhibition.

T2 sequence (P78536 215-824): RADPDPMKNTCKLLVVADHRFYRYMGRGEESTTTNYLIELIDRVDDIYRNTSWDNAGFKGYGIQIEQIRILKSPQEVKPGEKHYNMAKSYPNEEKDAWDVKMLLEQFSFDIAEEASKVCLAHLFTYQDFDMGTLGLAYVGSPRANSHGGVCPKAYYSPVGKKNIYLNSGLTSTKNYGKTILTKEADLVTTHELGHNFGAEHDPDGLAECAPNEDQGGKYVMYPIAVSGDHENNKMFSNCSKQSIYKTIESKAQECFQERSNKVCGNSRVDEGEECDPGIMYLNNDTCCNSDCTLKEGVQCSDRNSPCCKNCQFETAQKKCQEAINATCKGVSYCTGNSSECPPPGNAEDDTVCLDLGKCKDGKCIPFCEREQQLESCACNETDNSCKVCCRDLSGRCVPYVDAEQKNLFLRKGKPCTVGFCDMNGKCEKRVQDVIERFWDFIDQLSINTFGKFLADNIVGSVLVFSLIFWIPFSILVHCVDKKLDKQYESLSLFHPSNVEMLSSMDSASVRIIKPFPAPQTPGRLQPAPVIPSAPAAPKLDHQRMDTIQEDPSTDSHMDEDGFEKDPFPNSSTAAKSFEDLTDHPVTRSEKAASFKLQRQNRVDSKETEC

Take `O=C1NC(=O)C(Cc2ccc(Cl)cc2)(c2ccccc2)N1` (stereo not shown) [CID 236330]: the IC50 against ADAM10 [1] (setting [11]) was determined as 32 µM; at ADAM17 [2] it was 3.2 µM.

Take `CCOc1ccc(NC(=O)CC2SC(=O)N(c3ccccc3)C2=O)cc1` (stereo not shown) [CID 3153587]: the values for the IC50 at ADAM10 [1] (setting [11]) and against ADAM17 [2] were more than 70 µM and 7.8 µM, respectively.

For the molecule `CC(=O)NO` [AHA, acetohydroxamic acid], at ADAM10 [3] (AHA alone, read-out: AHA IC50, ADAM10-mediated hydrolysis of glycosylated substrate), the IC50 is 1000 ± 50 µM. Besides, the “improvement in potency versus AHA alone” value at ADAM10 [3] (in the presence of 1.1 µM CID 31176944) turned out to be 10 fold; at ADAM10 [3] (in the presence of 4.4 µM CID 31176944), 100 fold.

Regarding `O=C(NO)[C@H]1C[C@H](OC(=O)N2CCCC2)CC[C@@H]1C(=O)N1CCC(c2ccccc2)CC1` [INCB8765], the IC50 was 0.097 µM on ADAM10 [4] and 2.04 µM on ADAM17 [5].

As to `CNC(=O)[C@@H](NC(=O)[C@H](CCCc1ccccc1)[C@H](C)N(O)C=O)C(C)(C)C` [GI 254023X, reference compound], the “inhibition of neutrophil migration” value in [6] was “completely inhibited migration”. Also, the results for the IC50 on ADAM10 [4] and on ADAM17 [5] were 0.0053 µM and 0.541 µM, respectively. Also, the “inhibition of PBMC migration” value in [7] is given as “completely inhibited migration”. Besides, the “inhibition of cytokine-inducible shedding of CXCL16” value in [8] is on record as “inhibited shedding”. Moreover, the “inhibition of syndecan-4 shedding” value in test [9] was “inhibited shedding”.

With `O=C(O)CCC(=O)c1c[nH]c2ccccc12` [CID 730037], the IC50 at ADAM10 [1] (setting [11]) was more than 70 µM. The “activity against ADAM17 of reordered powder versus original testing” value at ADAM17 [2] (reordered powder, 10-point 1:3 dilutions starting at 100 µM) is on record as “significantly lower activity”.

In the case of `CNC(=O)[C@@H](NC(=O)[C@H](CC(C)C)[C@H](O)C(=O)NO)C(C)(C)C` [marimastat, reference compound], the IC50 is 0.033 µM at ADAM10 [1] (384 well plate format) and 0.02 µM against ADAM10 [1] (1536 well plate format). In addition, on ADAM10 [10], the “potency for hydrolysis of glycosylated versus non-glycosylated substrate” value was “same potency”.

B1: ADAM10 prodomain: Biozyme Inc.; competitive inhibitor of ADAM10 (protein)
chain: NPLNKYIRHYEGLSYNVDSLHQKHQRAKRAVSHEDQFLLLDFHAHGRQFNLRMKRDTSLFSDEFKVETSNKVLDYDTSHIYTGHIYGEEGSFSHGSVIDGRFEGFIKTRGGTFYIEPAERYIKDRILPFHSVIYHEDDINYPHKYGPQGGCADHSVFERMRKYQMTGVEEGARAHPEKHAASSGPELLRKK
modifications: tag omitted
B1: the values for the IC50 with ADAM10 [4] and with ADAM17 [5] were 0.048 µM and more than 10 µM, respectively.

The record behind these values is publication PMC5431342, “Discovery of an enzyme and substrate selective inhibitor of ADAM10 using an exosite-binding glycosylated substrate” (Scientific Reports, 2016).
